These results are taken from patent US8778931B2, “Substituted hydroxamic acids and uses thereof” (Millennium Pharmaceuticals, Inc., priority 2010, dated 2014).

Series [1] concerns the target T1, purified human HDAC6 (Homo sapiens, UniProt Q9UBN7).
T1 construct: purchased BPS Bioscience 5006
T1 sequence (Q9UBN7 1-1215): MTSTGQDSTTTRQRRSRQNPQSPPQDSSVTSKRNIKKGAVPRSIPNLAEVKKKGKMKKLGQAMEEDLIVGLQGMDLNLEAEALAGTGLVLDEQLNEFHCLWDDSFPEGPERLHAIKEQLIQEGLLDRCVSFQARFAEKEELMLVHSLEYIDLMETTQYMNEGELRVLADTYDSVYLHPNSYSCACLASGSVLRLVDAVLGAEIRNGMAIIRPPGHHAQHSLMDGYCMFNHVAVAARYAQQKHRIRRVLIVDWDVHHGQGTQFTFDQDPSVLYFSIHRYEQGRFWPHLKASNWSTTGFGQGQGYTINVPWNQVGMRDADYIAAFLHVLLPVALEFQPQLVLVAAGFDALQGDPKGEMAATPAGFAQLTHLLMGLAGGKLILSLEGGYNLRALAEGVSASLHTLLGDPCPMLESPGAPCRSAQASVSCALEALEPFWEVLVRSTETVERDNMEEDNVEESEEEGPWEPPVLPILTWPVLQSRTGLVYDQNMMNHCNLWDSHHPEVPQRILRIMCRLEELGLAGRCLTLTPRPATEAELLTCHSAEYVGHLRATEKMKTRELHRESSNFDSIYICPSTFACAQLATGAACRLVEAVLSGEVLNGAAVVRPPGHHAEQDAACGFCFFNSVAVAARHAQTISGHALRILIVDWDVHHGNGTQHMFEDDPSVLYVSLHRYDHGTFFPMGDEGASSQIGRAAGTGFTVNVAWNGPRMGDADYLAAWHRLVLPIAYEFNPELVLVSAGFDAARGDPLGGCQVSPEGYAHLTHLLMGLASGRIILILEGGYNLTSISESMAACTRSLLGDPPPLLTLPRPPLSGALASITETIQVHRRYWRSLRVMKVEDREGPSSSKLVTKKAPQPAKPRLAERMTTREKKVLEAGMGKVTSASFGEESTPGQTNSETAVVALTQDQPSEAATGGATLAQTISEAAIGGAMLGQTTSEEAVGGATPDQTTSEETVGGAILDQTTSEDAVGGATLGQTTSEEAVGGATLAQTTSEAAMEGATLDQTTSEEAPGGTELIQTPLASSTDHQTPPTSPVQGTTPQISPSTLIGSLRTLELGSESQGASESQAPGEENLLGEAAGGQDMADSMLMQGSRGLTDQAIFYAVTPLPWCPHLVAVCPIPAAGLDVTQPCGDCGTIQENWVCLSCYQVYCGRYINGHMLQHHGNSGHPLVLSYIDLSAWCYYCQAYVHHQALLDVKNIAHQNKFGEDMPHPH
Nature of the series: HDAC6 Enzyme Assay. The following applies: HDAC6, 0.37 μM concentration; read-out: Percentage Inhibition (%). The class given is biochemical. The procedure:
To measure the inhibition of HDAC6 activity, purified human HDAC6 (BPS Bioscience; Cat. No. 5006) is incubated with substrate Ac-Arg-Gly-Lys(Ac)-AMC peptide (Bachem Biosciences; Cat. No. I-1925) for 1 hour at 30° C. in the presence of test compounds or vehicle DMSO control. The reaction is stopped with the HDAC inhibitor trichostatin A (Sigma; Cat. No. T8552) and the amount of Arg-Gly-Lys-AMC generated is quantitated by digestion with trypsin (Sigma; Cat. No. T1426) and subsequent measurement of the amount of AMC released using a fluorescent plate reader (Pherastar; BMG Technologies) set at Ex 340 nm and Em 460 nm. Concentration response curves are generated by calculating the fluorescence increase in test compound-treated samples relative to DMSO-treated controls, and percentage inhibition values at a single concentration or enzyme inhibition (IC50) values are determined from those curves. One skilled in the art will appreciate that the values generated either as percentage inhibition at a single concentration or IC50 values are subject to experimental variation.

Series [2] can be described thus: Intrinsic Clearance in Microsomes (dog). The class given is in vitro ADME. Particulars: liver microsomes, pH 7.4, 2 μM test compound, read-out: In Vitro Microsomal Intrinsic Clearance, Dog CL int (converted). The procedure:
(§1) The following reagents and stock solutions are required for determination of microsomal clearance.
(§2) • 1. 0.1 M potassium phosphate buffer, pH 7.4: • Stock A (1.0 M): 136.5 g of monobasic potassium phosphate (Sigma #P5379) in 1 L of nanopure water. • Stock B (1.0 M): 174.2 g of dibasic potassium phosphate (Sigma #P8281) in 1 L of nanopure water. • Mix 40.5 mL of stock B+9.5 mL of stock A, adjust pH with monobasic potassium phosphate, qs to 500 mL with nanopure water to give 0.1M potassium phosphate buffer, pH 7.4. • 2. […] NADPH: β-nicotinamide adenine dinucleotide phosphate, reduced form (Sigma #N1630) • 4. UDPGA: Uridine 5′-Diphosphote Glucuronic Acid, Triamnonium salt (Sigma #U-5625) • 5. Alamethicin (Sigma #A-4665-25) • 6. MgCl2: Magnesium chloride (Sigma #M8266) • 7. DMSO: Dimethyl sulfoxide (Sigma #D4540) • 8. 7EC: 7-Ethoxycoumarine (Sigma #E1379), positive control. • 9. Carbutamide (Aldrich cat #38157-8), internal standard. Stock Solutions: • 1. 10 mM stock solution of test compound in DMSO • 200 μM test solution of test compound: 10 μL of 10 mM test compound stock solution+490 μL of 75% ACN/water • 2. 10 mM stock solution of 7-Ethoxycoumarin in DMSO (positive control) • 200 μM test solution of 7-Ethoxycoumarine: 10 μL of 10 mM 7EC stock solution+490 μL of 75% ACN/water. • 3. 10 mM carbutamide stock (internal standard): Dissolve 2.71 mg of carbutimide in 1 mL DMSO. • 1 μM carbutamide solution: 100 μL of 10 mM stock solution in • 1 L of acetonitrile, store at 4° C. • 4. 3 mM MgCl2 in 0.1 M K-phosphate buffer: • Dissolve 28.5 mg of anhydrous MgCl2 in 100 mL of 0.1 M K-phosphate buffer, pH 7.4. • 5. 4× Stock Solution of Cofactors Mixture
(§3) 16 mM NADPH in 0.1 M K-phosphate buffer, pH 7.4 containing MgCl2.
(§4) 20 mM UDPGA in 0.1 M K-phosphate buffer, pH 7.4 containing MgCl2
(§5) Aliquot equal volume of stock solution of NADPH and UDPGA to make the final stock solution of cofactor mixture as follows:
(§6) 10 mM UDPGA • 6. Add 1.25 mL of methanol directly to the bottle of alamethicin. Invert 10 times to dissolve the alamethicin. This yields a 20 mg/ml solution of alamethicin. […]

The nature of series [3]: Intrinsic Clearance in Microsomes (human). The class given is in vitro ADME. Particulars: liver microsomes, pH 7.4, 2 μM test compound, read-out: In Vitro Microsomal Intrinsic Clearance, Human CL int. Here is the method:
as §1, §2, §3, §4, §5, §6
A general note: Liver microsomes are vesicles of endoplasmic reticulum, rich in cytochrome P450 enzymes.

The nature of series [4]: Intrinsic Clearance in Microsomes (rat). It is filed as in vitro ADME. Particulars: liver microsomes, pH 7.4, 2 μM test compound, read-out: In Vitro Microsomal Intrinsic Clearance, Rat CL int (converted). Here is the method: as §1, §2, §3, §4, §5, §6

As a reminder, the inhibition is the drop in the measured response relative to a control, in per cent. Consider `O=C(NO)c1ccc2c(c1)CCN(Cc1ccc(C3CCNCC3)cc1)C2` [Compound I-3, N-hydroxy-2-(4-piperidin-4-ylbenzyl)-1,2,3,4-tetrahydroisoquinoline-6-carboxamide], for which the inhibition at 0.37 µM in series [1] was 80.7%.

Turning to `CC1(C(=O)Nc2ccc(CN3CCc4cc(C(=O)NO)ccc4C3)cc2)CCNCC1` [Compound I-4, N-hydroxy-2-(4-{[(4-methylpiperidin-4-yl)carbonyl]amino}benzyl)-1,2,3,4-tetrahydroisoquinoline-6-carboxamide], the inhibition at 0.37 µM in series [1] came out at 72.2%.

`CC(C)(C)OC(=O)N1CCC(C)(C(=O)Nc2ccc(CN3CCc4cc(C(=O)NO)ccc4C3)cc2)CC1` [Compound I-6, tert-butyl 4-{[(4-{[6-[(hydroxyamino)carbonyl]-3,4-dihydroisoquinolin-2(1H)-yl]methyl}phenyl)amino]carbonyl}-4-methylpiperidine-1-carboxylate]: in series [1], the inhibition at 0.37 µM amounted to 61%.

Regarding `CC(C)(C)OC(=O)N1CCC(C)(C(=O)N2CCc3cc(C(=O)NO)ccc3C2)CC1` [Compound I-13, tert-butyl 4-{[6-[(hydroxyamino)carbonyl]-3,4-dihydroisoquinolin-2(1H)-yl]carbonyl}-4-methylpiperidine-1-carboxylate], in series [1], the inhibition at 0.37 µM was found to be 88.8%. Also, the CLint scaled at 2 µM in series [2] was 31.7 mL/min/kg; in series [3], less than 6.33 mL/min/kg; in series [4], 46.7 mL/min/kg.

Take `CC(C)(C)OC(=O)N1CCC(c2ccc(CN3CCc4cc(C(=O)NO)ccc4C3)cc2)CC1` [Compound I-5, tert-butyl 4-(4-{[6-[(hydroxyamino)carbonyl]-3,4-dihydroisoquinolin-2(1H)-yl]methyl}phenyl)piperidine-1-carboxylate]: the inhibition at 0.37 µM in series [1] worked out at 46.2%.

Consider `CC1(C(=O)N2CCc3cc(C(=O)NO)ccc3C2)CCNCC1` [Compound I-1, N-hydroxy-2-[(4-methylpiperidin-4-yl)carbonyl]-1,2,3,4-tetrahydroisoquinoline-6-carboxamide], for which, in series [1], the inhibition at 0.37 µM came out at 79.7%. The figures for the CLint scaled at 2 µM in series [2], in series [3] and in series [4] were less than 7.83 mL/min/kg, less than 6.33 mL/min/kg and less than 14.2 mL/min/kg, respectively.

With `CCN1CCC(C)(C(=O)N2CCc3cc(C(=O)NO)ccc3C2)CC1` [Compound I-2, 2-[(1-ethyl-4-methylpiperidin-4-yl)carbonyl]-N-hydroxy-1,2,3,4-tetrahydroisoquinoline-6-carboxamide], in series [1], the inhibition at 0.37 µM amounted to 78.3%. In addition, the CLint scaled at 2 µM is less than 7.83 mL/min/kg in series [2], less than 6.33 mL/min/kg in series [3] and less than 14.2 mL/min/kg in series [4].
